Assays:
[1] = insolubility level in PBS/Polysorbate-80 (Tween 80) solution; type: physicochemical; conditions: 0.5 mM and 1 mM in PBS/Polysorbate-80 (Tween 80) solution at 25° C. (FIG. 1A, 1B)
normal Epithelial cells = assay: effect on normal epithelial cells; type: cell-based; conditions: FIG. 2
Method: Compound (I) was dissolved in 20% hydroxypropylcyclodextrane and the volume of administration (IP) was 10 ml/kg.

[2] = tested on: metastatic Triple negative MDA-MB-231 Breast cancer cells; assay: viability / killing of MDA-MB-231 cells; type: cell-based; conditions: E266 versus E260; compound (I) as tartarate salt in 0.5% Tween-80; FIG. 5
Method: The compound (I), as tartarate salt was dissolved in 0.5% Tween-80 to affect the viability of several cell lines as follows.
The effect of the compound (I) (E266) on the growth profile of cancer cells which express Fer was tested. The cells that were tested were: the metastatic colon cancer cell line—SW620, the metastatic pancreatic ductal-adenocarcinoma SU.86.86 cancer cell-line—SU.86.86, the metastatic Triple Negative breast cancer cell line—MDA-MB-231, and the metastatic prostate cancer cell-line—PC3. The effect of the compound (I) (E266) on FS11 cells, a non malignant fibroblastic cell line, was also studied.

Structure (SMILES): CC(C)c1ccc(-c2cn3nc(N4CCC(CN5CCN(CCO)CC5)CC4)sc3n2)cc1 [Compound E266, 2-(4-{1-[6-(4-isopropyl-phenyl)-imidazo[2,1-b][1,3,4]thiadiazol-2-yl]-piperidin-4-ylmethyl}-piperazin-1-yl)-ethanol]
- solubility (insolubility level) [1]: soluble to a certain extent
- effect on normal Epithelial cells (normal Epithelial cells): no effect
- killing metastatic Triple negative MDA-MB-231 Breast cancer cells [2]: comparable activity
